Measurements from US20220249463A1, “METHODS OF ALTERING CARDIAC REMODELING USING COMPOUNDS THAT PROMOTE GLUCOSE OXIDATION” (IMBRIA PHARMACEUTICALS, INC., priority 2019, published 2022).
Values joined by “and” are separate entries in the source; they are usually repeats but may differ in a detail not shown here. Equal values may be shown once.

Tests used:
TAC mice [1] = assay: TAC mice, six weeks treatment: heart weight and heart weight/body weight; type: in vivo; conditions: 6 weeks; for cardiac mass: TMZ 6, CV-8814 7.5, CV-8972 10 mg/kg/day, osmotic minipump
TAC mice [2] = assay: TAC mice: left ventricular pressure with Mikro-tip catheter; type: in vivo; conditions: end of 6-week treatment; for left ventricular developed pressure (LVDP): TMZ 6, NA 2.4, CV-8814 7.5, CV-8972 10 mg/kg/day
TAC mice [3] = assay: TAC mice: echocardiography; type: in vivo
[4] = test system: ATPase, Na^+/K^+, pig heart; type: biochemical; conditions: 10 μM CV-8814
Phosphodiesterase PDE3 = type: biochemical, human; conditions: 10 μM CV-8814
Phosphodiesterase PDE4 = type: biochemical, human; conditions: 10 μM CV-8814
[5] = test system: Protein Serine/Threonine Kinase, PKC, Non-selective; type: biochemical, rat; conditions: 10 μM CV-8814
[6] = test system: Calcium Channel L-Type, Benzothiazepine; type: binding, rat; conditions: 10 μM CV-8814
[7] = test system: Calcium Channel L-Type, Dihydropyridine; type: binding, rat; conditions: 10 μM CV-8814
[8] = test system: Calcium Channel L-Type, Phenylalkylamine; type: binding, rat; conditions: 10 μM CV-8814
[9] = test system: GABAA, Chloride Channel, TBOB; type: binding, rat; conditions: 10 μM CV-8814
[10] = test system: GABAA, Flunitrazepam, Central; type: binding, rat; conditions: 10 μM CV-8814
[11] = test system: GABAA, Ro-15-1788, Hippocampus; type: binding, rat; conditions: 10 μM CV-8814
Glutamate, AMPA = type: binding, rat; conditions: 10 μM CV-8814
Glutamate, Kainate = type: binding, rat; conditions: 10 μM CV-8814
Glutamate, NMDA, Agonism = type: binding, rat; conditions: 10 μM CV-8814
[12] = test system: Glutamate, NMDA, Phencyclidine; type: binding, rat; conditions: 10 μM CV-8814
[13] = test system: Glutamate, NMDA, Polyamine; type: binding, rat; conditions: 10 μM CV-8814
[14] = test system: Glycine, Strychnine-Sensitive; type: binding, rat; conditions: 10 μM CV-8814
Nicotinic Acetylcholine = type: binding, human; conditions: 10 μM CV-8814
Potassium Channel [KATP] = Potassium Channel [KATP] (Cricetus cricetus, UniProt Q09427); type: binding, hamster; conditions: 10 μM CV-8814
Sodium Channel, Site 2 = type: binding, rat; conditions: 10 μM CV-8814
Transporter, Adenosine = type: binding, guinea pig; conditions: 10 μM CV-8814
Transporter, GABA = type: binding, rat; conditions: 10 μM CV-8814
[15] = test system: isolated hearts after ischemia-reperfusion; assay: Ischemia-reperfusion (IR): coronary flow; type: in vivo, mice; conditions: TMZ 20 μM, TNF 2 μM each, TNS 20 μM each, individual hearts, MEAN = group mean; for CF20: coronary flow at 20 minutes; for CF170: coronary flow at 170 minutes, after IR; for CF170/CF20: ratio of flow at 170 minutes to flow at 20 minutes
Description: FIG. 38 is a schematic of the ischemia-reperfusion (IR) method used to analyze the effects of selected compositions on coronary flow, cardiac function, and infarct size. […] At 20 minutes, ischemia was induced, and coronary flow was analyzed. At 50 minutes, reperfusion was initiated to restore blood flow. At 170 minutes, coronary flow and cardiac function was analyzed, and then the hearts were preserved, sectioned, and infarct size was measured by triphenyltetrazolium chloride (TTC) staining. FIG. 39 is a graph of coronary flow of after IR.

[16] = test system: isolated hearts after ischemia-reperfusion; assay: Ischemia-reperfusion (IR): cardiac function (left ventricular pressure); design: species or system mice; conditions: for left ventricular developed pressure (LVDP), Mean: Table 6 group mean; for HR / LVDP / LVDPxHR / LVEDP / LVESP: individual hearts, MEAN = group mean
Description: FIG. 38 is a schematic of the ischemia-reperfusion (IR) method used to analyze the effects of selected compositions on coronary flow, cardiac function, and infarct size. […] At 20 minutes, ischemia was induced, and coronary flow was analyzed. At 50 minutes, reperfusion was initiated to restore blood flow. At 170 minutes, coronary flow and cardiac function was analyzed, and then the hearts were preserved, sectioned, and infarct size was measured by triphenyltetrazolium chloride (TTC) staining. FIG. 40 is graph of left ventricular developed pressure (LVDP) after IR.

[17] = test system: isolated hearts after ischemia-reperfusion; assay: Ischemia-reperfusion (IR): infarct size by TTC staining; type: in vivo, mice
Description: FIG. 38 is a schematic of the ischemia-reperfusion (IR) method used to analyze the effects of selected compositions on coronary flow, cardiac function, and infarct size. […] At 20 minutes, ischemia was induced, and coronary flow was analyzed. At 50 minutes, reperfusion was initiated to restore blood flow. At 170 minutes, coronary flow and cardiac function was analyzed, and then the hearts were preserved, sectioned, and infarct size was measured by triphenyltetrazolium chloride (TTC) staining. […] FIG. 42 is graph of infarct size after IR.

TAC mice [18] = assay: TAC mice: cardiac fibrosis, Masson's trichrome; type: in vivo; conditions: end of 6-week experiment
[19] = TMZ 6, NA 2.4, CV-8814 7.5, CV-8972 10 mg/kg/day
[20] = TMZ 20 μM, TNF 2 μM each, TNS 20 μM each

Potassium Channel [KATP], sequence (Q09427 whole entry): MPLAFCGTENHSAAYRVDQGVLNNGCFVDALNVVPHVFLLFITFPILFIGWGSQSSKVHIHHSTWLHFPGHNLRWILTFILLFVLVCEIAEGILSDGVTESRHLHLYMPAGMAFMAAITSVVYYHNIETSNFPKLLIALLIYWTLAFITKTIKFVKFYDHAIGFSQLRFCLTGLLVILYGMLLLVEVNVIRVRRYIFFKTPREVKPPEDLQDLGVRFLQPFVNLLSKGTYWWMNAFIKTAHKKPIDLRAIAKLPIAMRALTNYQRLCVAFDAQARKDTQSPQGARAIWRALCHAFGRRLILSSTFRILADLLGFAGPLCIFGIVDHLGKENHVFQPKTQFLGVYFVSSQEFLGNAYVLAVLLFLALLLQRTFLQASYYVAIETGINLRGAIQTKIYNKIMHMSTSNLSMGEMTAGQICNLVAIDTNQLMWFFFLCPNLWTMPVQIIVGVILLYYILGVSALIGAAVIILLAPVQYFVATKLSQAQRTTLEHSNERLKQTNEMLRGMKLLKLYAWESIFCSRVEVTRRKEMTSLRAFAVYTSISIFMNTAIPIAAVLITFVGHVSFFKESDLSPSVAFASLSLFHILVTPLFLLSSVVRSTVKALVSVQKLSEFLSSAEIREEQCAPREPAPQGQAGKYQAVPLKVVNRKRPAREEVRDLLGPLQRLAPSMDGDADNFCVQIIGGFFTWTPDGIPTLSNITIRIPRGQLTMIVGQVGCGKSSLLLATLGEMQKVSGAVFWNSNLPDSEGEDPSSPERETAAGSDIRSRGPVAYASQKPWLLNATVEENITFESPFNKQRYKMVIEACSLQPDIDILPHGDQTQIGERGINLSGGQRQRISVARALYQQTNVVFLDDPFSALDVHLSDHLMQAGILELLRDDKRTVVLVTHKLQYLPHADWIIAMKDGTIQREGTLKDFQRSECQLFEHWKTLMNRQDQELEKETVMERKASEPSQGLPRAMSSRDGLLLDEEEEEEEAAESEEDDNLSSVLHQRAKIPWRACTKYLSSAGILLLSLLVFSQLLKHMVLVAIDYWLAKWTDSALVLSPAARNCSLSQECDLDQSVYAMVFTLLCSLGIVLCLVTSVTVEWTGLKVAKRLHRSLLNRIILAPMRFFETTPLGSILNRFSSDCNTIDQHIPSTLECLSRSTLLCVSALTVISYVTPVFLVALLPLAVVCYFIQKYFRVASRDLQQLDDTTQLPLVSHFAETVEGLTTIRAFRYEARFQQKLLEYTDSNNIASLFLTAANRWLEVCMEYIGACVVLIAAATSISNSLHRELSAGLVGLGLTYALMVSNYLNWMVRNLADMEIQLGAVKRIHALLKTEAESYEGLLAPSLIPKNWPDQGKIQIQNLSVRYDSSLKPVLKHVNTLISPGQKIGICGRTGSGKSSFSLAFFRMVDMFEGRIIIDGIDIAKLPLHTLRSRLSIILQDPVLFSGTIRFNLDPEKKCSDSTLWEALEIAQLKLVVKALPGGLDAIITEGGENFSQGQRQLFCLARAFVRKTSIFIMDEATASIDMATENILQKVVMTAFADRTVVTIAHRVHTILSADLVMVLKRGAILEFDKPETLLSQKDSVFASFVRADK

COc1ccc(CN2CCN(CCO)CC2)c(OC)c1OC [CV-8814, 2-(4-(2,3,4-trimethoxybenzyl)piperazin-1-yl)ethan-1-ol]
cardiac remodeling in TAC mice (in words) (TAC mice [1]; [19]): effectively inhibited cardiac remodeling | cardiac mass (TAC mice [1]; TAC mice): 227 ± 12 mg | heart weight to body weight ratio (TAC mice [1]; TAC mice, TMZ 6, NA 2.4, CV-8814 7.5, CV-8972 10 mg/kg/day, subcutaneous osmotic minipump): 7.6 ± 0.4 mg/g | +dp/dtm (TAC mice [2]): 4572±268 mm Hg/sec | left ventricular developed pressure (LVDP) (TAC mice [2]): 123±8 mm Hg | EF (in words) (TAC mice [3]; 3-weeks after TAC): significantly increased | IVRT (TAC mice [3]; 3-weeks after TAC): 33 ± 1 ms | IVSd (TAC mice [3]; 3-weeks after TAC): 1.27±0.02 mm | LV mass (TAC mice [3]; 3-weeks after TAC): 152 ± 9 mg | left ventricular FS (TAC mice [3]; 3-weeks after TAC, CV-8814 7.5, CV-8972 10 mg/kg/day): 46%±2% | IVRT (TAC mice [3]; 6-weeks after TAC): 28 ± 2 ms | IVSd (TAC mice [3]; 6-weeks after TAC): 1.26±0.04 mm | left ventricular FS (TAC mice [3]; 6-weeks after TAC (end of the experiment)): 44%±3% | cardiac functions in TAC mice (in words) (TAC mice [3]; conclusion, 6 weeks treatment): improved cardiac functions | EF (in words) (TAC mice [3]; to the end of the study (6 weeks)): protective effect was sustained to the end of the study | Inhibition [4]: < 50% | Inhibition (Phosphodiesterase PDE3): < 50% | Inhibition (Phosphodiesterase PDE4): < 50% | Inhibition [5]: < 50% | Inhibition [6]: < 50% | Inhibition [7]: < 50% | Inhibition [8]: < 50% | Inhibition [9]: < 50% | Inhibition [10]: < 50% | Inhibition [11]: < 50% | Inhibition (Glutamate, AMPA): < 50% | Inhibition (Glutamate, Kainate): < 50% | Inhibition (Glutamate, NMDA, Agonism): < 50% | Inhibition [12]: < 50% | Inhibition [13]: < 50% | Inhibition [14]: < 50% | Inhibition (Nicotinic Acetylcholine): < 50% | inhibition at 10 µM (Potassium Channel [KATP]): < 50% | Inhibition (Sodium Channel, Site 2): < 50% | Inhibition (Transporter, Adenosine): < 50% | Inhibition (Transporter, GABA): < 50%

COc1ccc(CN2CCNCC2)c(OC)c1OC [TMZ, trimetazidine]
CF20 [15]: 2.13 mL/min and 1.7 mL/min and 2.18 mL/min and 3.83 mL/min and 1.72 mL/min and 2.4 mL/min and 2.14 mL/min and 2.03 mL/min | CF20 ([15]; mean): 2.27 mL/min | CF170 [15]: 0.0516 mL/min and 0.1 mL/min and 0.0778 mL/min and 0.129 mL/min and 0.0898 mL/min and 0.0656 mL/min and 0.0556 mL/min and 0.13 mL/min | CF170 ([15]; mean): 0.0874 mL/min | CF170/CF20 [15]: 2.42E+01 μl/ml and 5.87E+01 μl/ml and 3.57E+01 μl/ml and 3.37E+01 μl/ml and 5.21E+01 μl/ml and 2.73E+01 μl/ml and 2.60E+01 μl/ml and 6.39E+01 μl/ml | CF170/CF20 ([15]; mean): 4.02E+01 μl/ml | left ventricular developed pressure (LVDP), Mean ([16]; T20 (20 minutes)): 55.86 | left ventricular developed pressure (LVDP), Mean ([16]; T170 (170 minutes, after IR)): 48.91 | cardiac function after IR (in words) [16, 20]: prevented a decline in cardiac function | HR ([16]; after 2h reperfusion): 1.18E+02 and 1.19E+02 and 1.01E+02 and 1.51E+02 and 6.70E+01 and 9.22E+01 and 2.22E+02 and 1.70E+02 and 1.16E+02 and 2.38E+02 | LVDP ([16]; after 2h reperfusion): 2.14E+01 and 4.34E+01 and 5.22E+01 and 2.97E+01 and 4.84E+01 and 4.67E+01 and 4.10E+01 and 7.65E+01 and 5.53E+01 and 7.43E+01 | LVDPxHR ([16]; after 2h reperfusion): 2.52E+03 and 5.15E+03 and 5.28E+03 and 4.49E+03 and 3.24E+03 and 4.31E+03 and 9.11E+03 and 1.30E+04 and 6.44E+03 and 1.77E+04 | LVEDP ([16]; after 2h reperfusion): 2.93E+01 and 3.31E+01 and 3.96E+01 and 1.80E+01 and 3.36E+00 and 1.87E+00 and 1.99E+01 and 3.21E+01 and 1.84E+01 and 1.77E+00 | LVESP ([16]; after 2h reperfusion): 5.07E+01 and 7.66E+01 and 9.19E+01 and 4.77E+01 and 5.18E+01 and 4.86E+01 and 6.09E+01 and 1.09E+02 and 7.38E+01 and 7.61E+01 | HR ([16]; after 2h reperfusion, mean): 1.39E+02 | LVDP ([16]; after 2h reperfusion, mean): 4.89E+01 | LVDPxHR ([16]; after 2h reperfusion, mean): 6.82E+03 | LVEDP ([16]; after 2h reperfusion, mean): 1.97E+01 | LVESP ([16]; after 2h reperfusion, mean): 6.86E+01 | LVESP ([16]; pre-ischemia, TMZ 20 μM, TNF 2 μM each, TNS 20 μM each): 7.58E+01 and 8.44E+01 and 7.15E+01 and 5.47E+01 and 6.87E+01 and 4.27E+01 and 3.30E+01 (2×) and 6.60E+01 and 7.38E+01 | LVESP ([16]; pre-ischemia, TMZ 20 μM, TNF 2 μM each, TNS 20 μM each, mean): 6.03E+01 | HR ([16]; pre-ischemia): 2.63E+02 and 2.93E+02 and 1.66E+02 and 3.35E+02 and 3.58E+02 and 3.33E+02 and 3.48E+02 and 3.21E+02 and 2.67E+02 and 3.32E+02 | LVDP ([16]; pre-ischemia): 6.93E+01 and 7.90E+01 and 6.48E+01 and 5.30E+01 and 6.51E+01 and 3.80E+01 and 2.82E+01 and 3.15E+01 and 5.87E+01 and 7.11E+01 | LVDPxHR ([16]; pre-ischemia): 1.83E+04 and 2.31E+04 and 1.08E+04 and 1.77E+04 and 2.33E+04 and 1.26E+04 and 9.82E+03 and 1.01E+04 and 1.57E+04 and 2.36E+04 | LVEDP ([16]; pre-ischemia): 6.53E+00 and 5.43E+00 and 6.76E+00 and 1.74E+00 and 3.58E+00 and 4.71E+00 and 4.77E+00 and 1.46E+00 and 7.25E+00 and 2.70E+00 | HR ([16]; pre-ischemia, mean): 3.02E+02 | LVDP ([16]; pre-ischemia, mean): 5.59E+01 | LVDPxHR ([16]; pre-ischemia, mean): 1.68E+04 | LVEDP ([16]; pre-ischemia, mean): 4.49E+00 | infarct size after IR (in words) [17, 20]: decreased infarct size | IS/LV ([17]; individual isolated hearts after ischemia-reperfusion): 58% and 49% (2×) and 44% and 71% and 64% and 68% and 60% and 43% and 51% | IS/LV Mean ([17]; mean of 10 hearts of the group): 56% | cardiac remodeling in TAC mice (in words) (TAC mice [1]; [19]): effectively inhibited cardiac remodeling | cardiac mass (TAC mice [1]; TAC mice): 224 ± 12 mg | +dp/dtm (TAC mice [2]): 5157±615 mm Hg/sec | left ventricular developed pressure (LVDP) (TAC mice [2]): 137±10 mm Hg | LV mass (TAC mice [3]; 3-weeks after TAC): 153 ± 8 mg | IVRT (TAC mice [3]; 6-weeks after TAC): 36 ± 1 ms | LV mass (TAC mice [3]; 6-weeks after TAC): 176 ± 15 mg | cardiac fibrosis (fibrotic area to whole heart tissue area) (TAC mice [18]): 7.6±1%
